Tests used:
Format in all cases: in vivo
[1] = tested on: STEME = Stellaria media; test: Greenhouse trial, activity with different soil types (test method 7); conditions: g of AS/ha: (A) 120, (B) 1200, (A)+(B) 120 + 1200
Protocol: (§1) In the standard design of the test, seeds of various broad-leaved weed and weed grass biotypes (origins) were sown in a 8-13 cm diameter pot filled with natural soil of a standard field soil (loamy silt; non-sterile) and covered with a covering soil layer of about 1 cm. The pots were then cultivated in a greenhouse (12-16 h of light, temperature day 20-22° C., night 15-18° C.) until the time of application. The pots were treated on a laboratory track sprayer with spray liquors comprising the compositions according to the invention, mixtures of the prior art or components used individually. Application of the active compounds or active compound combinations formulated as WG, WP, EC or otherwise was carried out at the appropriate growth stages of the plants. The application rate for the spray application was 100-600 l of water/ha. After the treatment, the plants were returned to the greenhouses.
(§2) About 3 weeks after the application, the soil action or/and foliar action was assessed visually according to a scale of 0-100% in comparison to an untreated comparative group: 0%=no noticeable effect compared to the untreated comparative group; 100%=full effect compared to the untreated comparative group.
(§3) (notes: the term “seeds” also includes vegetative propagation forms such as, for example, rhizome pieces; abbreviations used: h light=hours of illumination, g of AS/ha=gram of active substance per hectare, l/ha=liter per hectare, S=sensitive, R=resistant) • 1. Pre-emergence action against weeds: seeds of various broad-leaved weed and weed grass biotypes (origins) were sown in a 8-13 cm diameter pot filled with natural soil of a standard field soil (loamy silt; non-sterile) and covered with a covering soil layer of about 1 cm. The pots were then cultivated in a greenhouse (12-16 h of light, temperature day 20-22° C., night 15-18° C.) until the time of application. The pots were treated at the BBCH stage 00-10 of the seeds/plants on a laboratory track sprayer with spray liquors comprising the compositions according to the invention, mixtures or components used individually, as WG, WP, EC or other formulations. The application rate for the spray application was 100-600 l of water/ha. After the treatment, the plants were returned to the greenhouses and, when required, treated with fertilizer and watered. • 2. Post-emergence action against weeds: seeds of various broad-leaved weed and weed grass biotypes (origins) were sown in a 8-13 cm diameter pot filled with natural soil of a standard field soil (loamy silt; non-sterile) and covered with a covering soil layer of about 1 cm. The pots were then cultivated in a greenhouse (12-16 h of light, temperature day 20-22° C., night 15-18° C.) until the time of application. The pots were treated at various BBCH stages between 11-25 of the seeds/plants, i.e. generally between two to three weeks after the start of the cultivation, on a laboratory track sprayer with spray liquors comprising the compositions according to the invention, mixtures or components used individually, as WG, WP, EC or other formulations. The application rate for the spray application was 100-600 l of water/ha. After the treatment, the plants were returned to the greenhouses and, when required, treated with fertilizer and watered. • 3. Selective pre-emergence action: seeds of various crop species (origins) were sown in a 8-13 cm diameter pot filled with natural soil of a standard field soil (loamy silt; non-sterile) and covered with a covering soil layer of about 1 cm. The pots were then cultivated in a greenhouse (12-16 h of light, temperature day 20-22° C., night 15-18° C.) until the time of application. The pots were treated at the BBCH stage 00-10 of the seeds/plants on a laboratory track sprayer with spray liquors comprising the compositions according to the invention, mixtures or components used individually, as WG, WP, EC or other formulations. The application rate for the spray application was 100-600 l of water/ha. […]

[2] = tested on: AVEFA = Avena fatua; test: Greenhouse trial, pre-sowing application 7 days prior to sowing (test method 5); conditions: g of AS/ha: (A) 90, (B) 1200, (A)+(B) 90 + 1200
Protocol: as §1, §2
(§4) (notes: the term “seeds” also includes vegetative propagation forms such as, for example, rhizome pieces; abbreviations used: h light=hours of illumination, g of AS/ha=gram of active substance per hectare, l/ha=liter per hectare, S=sensitive, R=resistant) • 1. Pre-emergence action against weeds: seeds of various broad-leaved weed and weed grass biotypes (origins) were sown in a 8-13 cm diameter pot filled with natural soil of a standard field soil (loamy silt; non-sterile) and covered with a covering soil layer of about 1 cm. The pots were then cultivated in a greenhouse (12-16 h of light, temperature day 20-22° C., night 15-18° C.) until the time of application. The pots were treated at the BBCH stage 00-10 of the seeds/plants on a laboratory track sprayer with spray liquors comprising the compositions according to the invention, mixtures or components used individually, as WG, WP, EC or other formulations. The application rate for the spray application was 100-600 l of water/ha. After the treatment, the plants were returned to the greenhouses and, when required, treated with fertilizer and watered. • 2. Post-emergence action against weeds: seeds of various broad-leaved weed and weed grass biotypes (origins) were sown in a 8-13 cm diameter pot filled with natural soil of a standard field soil (loamy silt; non-sterile) and covered with a covering soil layer of about 1 cm. The pots were then cultivated in a greenhouse (12-16 h of light, temperature day 20-22° C., night 15-18° C.) until the time of application. The pots were treated at various BBCH stages between 11-25 of the seeds/plants, i.e. generally between two to three weeks after the start of the cultivation, on a laboratory track sprayer with spray liquors comprising the compositions according to the invention, mixtures or components used individually, as WG, WP, EC or other formulations. The application rate for the spray application was 100-600 l of water/ha. After the treatment, the plants were returned to the greenhouses and, when required, treated with fertilizer and watered. • 3. […]

[3] = tested on: MATCH = Matricaria chamomilla; test: as above; conditions: g of AS/ha: (A) 90, (B) 1200, (A)+(B) 90 + 1200
Protocol: as §1, §2, §4

[4] = tested on: AVEFA = Avena fatua; test: Greenhouse trial, pre-emergence (PE) action against weeds (test method 1); conditions: PE application; g of AS/ha: (A) 90, (B) 1200, (A)+(B) 90 + 1200
Protocol: as §1, §2
(§5) (notes: the term “seeds” also includes vegetative propagation forms such as, for example, rhizome pieces; abbreviations used: h light=hours of illumination, g of AS/ha=gram of active substance per hectare, l/ha=liter per hectare, S=sensitive, R=resistant) • 1. Pre-emergence action against weeds: seeds of various broad-leaved weed and weed grass biotypes (origins) were sown in a 8-13 cm diameter pot filled with natural soil of a standard field soil (loamy silt; non-sterile) and covered with a covering soil layer of about 1 cm. The pots were then cultivated in a greenhouse (12-16 h of light, temperature day 20-22° C., night 15-18° C.) until the time of application. The pots were treated at the BBCH stage 00-10 of the seeds/plants on a laboratory track sprayer with spray liquors comprising the compositions according to the invention, mixtures or components used individually, as WG, WP, EC or other formulations. The application rate for the spray application was 100-600 l of water/ha. After the treatment, the plants were returned to the greenhouses and, when required, treated with fertilizer and watered. • 2. Post-emergence action against weeds: seeds of various broad-leaved weed and weed grass biotypes (origins) were sown in a 8-13 cm diameter pot filled with natural soil of a standard field soil (loamy silt; non-sterile) and covered with a covering soil layer of about 1 cm. The pots were then cultivated in a greenhouse (12-16 h of light, temperature day 20-22° C., night 15-18° C.) until the time of application. […]

[5] = tested on: MATCH = Matricaria chamomilla; test: as above; conditions: PE application; g of AS/ha: (A) 90, (B) 1200, (A)+(B) 90 + 1200
Protocol: as §1, §2, §5

[6] = tested on: VIOAR = Viola arvensis; test: Greenhouse trial, post-emergence (PO) action against weeds (test method 2); conditions: PO application; g of AS/ha: (A) 120, (B) 1200, (A)+(B) 120 + 1200; about 3 weeks after application
Protocol: as §1, §2, §3

[7] = tested on: LOLPE = Lolium perenne; test: as above; conditions: PO application; g of AS/ha: (A) 120, (B) 1200, (A)+(B) 120 + 1200; about 3 weeks after application
Protocol: as §1, §2, §3

[8] = tested on: STEME = Stellaria media; test: as above; conditions: PO application; g of AS/ha: (A) 120, (B) 1200, (A)+(B) 120 + 1200; about 3 weeks after application
Protocol: as §1, §2, §3

[9] = tested on: LOLPE = Lolium perenne; test: Greenhouse trial, PE application at different sowing depths (test method 9); conditions: g of AS/ha: (A) 120, (B) 1200, (A)+(B) 120 + 1200
Protocol: as §1, §2, §3

[10] = tested on: STEME = Stellaria media; test: as above; conditions: g of AS/ha: (A) 120, (B) 1200, (A)+(B) 120 + 1200
Protocol: as §1, §2, §3

[11] = tested on: AVEFA = Avena fatua; test: Greenhouse trial, PE application with different irrigation variations (test method 6); conditions: g of AS/ha: (A) 120, (B) 1200, (A)+(B) 120 + 1200
Protocol: as §1, §2, §3

[12] = tested on: MATCH = Matricaria chamomilla; test: as above; conditions: g of AS/ha: (A) 120, (B) 1200, (A)+(B) 120 + 1200
Protocol: as §1, §2, §3

[13] = tested on: ALOMY resistant (Alopecurus myosuroides); test: Greenhouse trial, PE application on resistant biotypes (test method 8); conditions: resistant biotype, g of AS/ha: (A) 90, (B) 1200, (A)+(B) 90 + 1200
Protocol: as §1, §2, §3

[14] = tested on: ALOMY sensitive (Alopecurus myosuroides); test: as above; conditions: sensitive biotype, g of AS/ha: (A) 90, (B) 1200, (A)+(B) 90 + 1200
Protocol: as §1, §2, §3

[15] = tested on: MATCH sensitive (Matricaria chamomilla); test: as above; conditions: sensitive biotype, g of AS/ha: (A) 90, (B) 1200, (A)+(B) 90 + 1200, (C) 10
Protocol: as §1, §2, §3

[16] = tested on: MATCH resistant (Matricaria chamomilla); test: as above; conditions: resistant biotype, g of AS/ha: (A) 90, (B) 1200, (A)+(B) 90 + 1200, (C) 10
Protocol: as §1, §2, §3

CC(C)N(C(=O)COc1nnc(C(F)(F)F)s1)c1ccc(F)cc1 [(A) flufenacet, N-(4-fluorophenyl)-N-(1-methylethyl)-2-[[5-(trifluoromethyl)-1,3,4-thiadiazol-2-yl]oxy]acetamide]
activity STEME IU soil (visual assessment, scale 0-100% vs untreated) ([1]; IU soil (loamy silt, standard field soil)): 89% | activity STEME IU/EC73 soil (visual assessment, scale 0-100% vs untreated) ([1]; IU/EC73 soil (heavier soil, higher organic substance)): 0% | Difference of the soil types Δ^D, STEME ([1]; IU/EC73 soil versus IU soil): Δ^D −89% | activity AVEFA (visual assessment, scale 0-100% vs untreated) [2]: 70% | activity MATCH (visual assessment, scale 0-100% vs untreated) [3]: 93% | activity AVEFA (visual assessment, scale 0-100% vs untreated) [4]: 85% | activity MATCH (visual assessment, scale 0-100% vs untreated) [5]: 15% | activity VIOAR (visual assessment, scale 0-100% vs untreated) [6]: 40% | activity LOLPE (visual assessment, scale 0-100% vs untreated) [7]: 65% | activity STEME (visual assessment, scale 0-100% vs untreated) [8]: 30% | activity LOLPE, sowing depth 5 mm (visual assessment, scale 0-100% vs untreated) ([9]; sowing depth 5 mm): 80% | activity LOLPE, sowing depth 20 mm (visual assessment, scale 0-100% vs untreated) ([9]; sowing depth 20 mm): 90% | activity STEME, sowing depth 5 mm (visual assessment, scale 0-100% vs untreated) ([10]; sowing depth 5 mm): 0% | activity STEME, sowing depth 20 mm (visual assessment, scale 0-100% vs untreated) ([10]; sowing depth 20 mm): 20% | activity AVEFA (visual assessment, scale 0-100% vs untreated) ([11]; irrigation from above): 85% | activity AVEFA (visual assessment, scale 0-100% vs untreated) ([11]; irrigation from below): 50% | activity MATCH (visual assessment, scale 0-100% vs untreated) ([12]; irrigation from above): 97% | activity MATCH (visual assessment, scale 0-100% vs untreated) ([12]; irrigation from below): 35% | activity ALOMY resistant (visual assessment, scale 0-100% vs untreated) [13]: 68% | activity ALOMY sensitive (visual assessment, scale 0-100% vs untreated) [14]: 80% | activity MATCH sensitive (visual assessment, scale 0-100% vs untreated) [15]: 30% | activity MATCH resistant (visual assessment, scale 0-100% vs untreated) [16]: 30%

Source: US20110152094A1, “Herbicidal compositions comprising flufenacet” (Bayer CropScience AG, priority 2009, published 2011)
